This passage reports tolerability results from US9186321B2 (SUDA LIMITED, priority 2011, dated 2015).

SMILES strings stand for the structures. Structures can show the parent of a compound that is named as a salt.

The nature of the data set: Overall tolerability in the relative bioavailability study. Format: in vivo, human. The following applies: doses of 10 mg, 20 mg, 30 mg and single oral dose of 25 mg (1×25 mg tablet); healthy adult subjects under fed conditions. How it is done: Assessments include evaluation of changes in orthostatic hypotension, oral irritation, vital sign assessments, 12-lead electrocardiogram (ECG), and clinical assessments.
After dosing, the following activities were completed: • Both objective and subjective oral irritation assessments were performed immediately after dosing and at one hour after dose administration. • A fast was maintained until at least four hours after dosing. During the study confinement period, fluid consumption resumed no sooner than one hour after dose administration. […] Day 2 • Blood sample collections were obtained as per the profile. • Supine and standing blood pressure and heart rate was measured at approximately 24 hours after each dose. • All subjects were evaluated for the presence of any adverse events prior to release from the study site. • Prior to release, subjects were evaluated to ensure it was safe for them to be released from the study site. • Subjects were released from the study site at approximately 24 hours after dose administration. […]

Consider `CCCc1nn(C)c2c(=O)[nH]c(-c3cc(S(=O)(=O)N4CCN(C)CC4)ccc3OCC)nc12` [sildenafil citrate], for which the tolerability result is “well tolerated”.
